pIC50: −log10 of the molar value. Converted amounts (≈) assume the structure as drawn.

In data set [1] the target is Transient receptor potential cation channel subfamily V member 4 (Homo sapiens, UniProt Q9HBA0). In words: Antagonist activity at human TRPV4 expressed in BHK or HEK MSR2 cells assessed as inhibition of TRPV4 agonist GSK634775 (EC80)-induced response incubated for 10 mins. The class given is cell-based.
Data set [2] in a line: Solubility of the compound by CLND assay. The class given is physicochemical.
Data set [3] in a line: Distribution coefficient, log D of the compound by chromatographic method. Conditions: octanol/water; call rule not given here. The class given is physicochemical.
A short description of data set [4]: MRT in iv dosed rat. In kind it is ADME, organism-based. As to conditions: in vivo.
Data set [5] in a line: Clearance in iv dosed rat. Conditions: in vivo. In kind it is ADME, organism-based.
Data set [6] is described as follows: Dose normalized AUC in orally dosed rat. In kind it is ADME, organism-based. Conditions: in vivo, po.
Data set [7] in a line: Oral bioavailability in rat. As to conditions: in vivo. The class given is ADME, organism-based.
Data set [8] in a line: Fraction unbound in rat plasma. In kind it is ADME, cell-free.
Data set [9] concerns the target Cytochrome P450 3A4 (Homo sapiens, UniProt P08684). In words: Time dependent inhibition of recombinant human CYP3A4 expressed in bactosomes at 100 to 300 uM using 7-benzyloxy-4-(trifluoromethyl)-coumarin substrate in presence of NADPH-generating system incubated up to 15 mins by fluorescence based assay. In kind it is ADME. Conditions: recombinant enzyme, 0.25 h, dose 100-300 µM.

Data set [10] in a line: Cmax in rat. The class given is ADME. Conditions: in vivo.
A short description of data set [11]: Volume of distribution at steady state in iv dosed rat. In kind it is ADME, organism-based. As to conditions: in vivo, read-out: Vdss.
The nature of data set [12]: Unbound clearance in iv dosed rat. In kind it is ADME, organism-based. As to conditions: in vivo.

Sequence of Transient receptor potential cation channel subfamily V member 4 (Q9HBA0 whole entry): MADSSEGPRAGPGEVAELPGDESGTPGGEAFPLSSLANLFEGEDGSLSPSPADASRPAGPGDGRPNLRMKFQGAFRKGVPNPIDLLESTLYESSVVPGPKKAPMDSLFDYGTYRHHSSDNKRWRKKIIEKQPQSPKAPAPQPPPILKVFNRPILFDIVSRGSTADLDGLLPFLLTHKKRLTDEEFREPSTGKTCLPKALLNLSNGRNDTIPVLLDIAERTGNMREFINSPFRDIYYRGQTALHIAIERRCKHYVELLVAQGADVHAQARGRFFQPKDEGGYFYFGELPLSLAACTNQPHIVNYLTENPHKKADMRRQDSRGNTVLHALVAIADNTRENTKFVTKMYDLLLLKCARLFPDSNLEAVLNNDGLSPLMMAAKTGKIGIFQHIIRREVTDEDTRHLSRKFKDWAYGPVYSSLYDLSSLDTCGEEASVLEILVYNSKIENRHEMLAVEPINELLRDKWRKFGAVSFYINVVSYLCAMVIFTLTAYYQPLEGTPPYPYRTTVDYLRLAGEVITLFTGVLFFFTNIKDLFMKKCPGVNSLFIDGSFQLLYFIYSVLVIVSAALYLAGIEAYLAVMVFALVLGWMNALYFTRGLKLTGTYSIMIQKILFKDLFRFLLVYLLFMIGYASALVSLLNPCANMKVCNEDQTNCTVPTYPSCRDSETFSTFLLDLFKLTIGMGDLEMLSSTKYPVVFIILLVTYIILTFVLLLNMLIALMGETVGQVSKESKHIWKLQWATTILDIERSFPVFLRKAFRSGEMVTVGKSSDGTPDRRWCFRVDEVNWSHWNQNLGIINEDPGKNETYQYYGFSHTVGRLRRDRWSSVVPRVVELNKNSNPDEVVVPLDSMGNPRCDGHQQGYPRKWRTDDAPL
Sequence of Cytochrome P450 3A4 (P08684 whole entry): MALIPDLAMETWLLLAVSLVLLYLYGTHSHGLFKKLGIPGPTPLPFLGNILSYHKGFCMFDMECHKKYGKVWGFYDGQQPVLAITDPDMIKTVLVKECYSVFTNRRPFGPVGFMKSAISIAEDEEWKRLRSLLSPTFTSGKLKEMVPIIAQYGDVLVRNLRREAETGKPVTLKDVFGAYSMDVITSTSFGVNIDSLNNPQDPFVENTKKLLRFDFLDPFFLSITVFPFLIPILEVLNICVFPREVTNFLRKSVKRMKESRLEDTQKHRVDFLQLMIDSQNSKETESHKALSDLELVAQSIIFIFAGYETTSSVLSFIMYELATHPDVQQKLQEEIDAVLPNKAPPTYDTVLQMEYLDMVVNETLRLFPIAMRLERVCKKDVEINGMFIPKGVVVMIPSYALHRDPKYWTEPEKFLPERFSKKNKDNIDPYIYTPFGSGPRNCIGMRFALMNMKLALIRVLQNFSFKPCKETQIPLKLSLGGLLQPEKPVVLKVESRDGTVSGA

`N#Cc1ccc(OCC2(O)CCN(S(=O)(=O)c3ccc(Cl)cc3Cl)CC2)cc1F`: the pIC50 in data set [1] was 7.00. Besides, the solubility (kinetic) in data set [2] was found to be 7.5 µM (≈ 3.44 µg/mL).

`N#Cc1ccc(OCC(O)CCNS(=O)(=O)c2ccc(Cl)cc2Cl)cc1F` (centres undefined) registered a chromatographic logD in data set [3] of 5.2. The kinetic solubility in [2] was 113 µM (≈ 49 µg/mL).

In the case of `Cc1cccc(OCC(N)CCNS(=O)(=O)c2ccc(Cl)cc2Cl)c1` (centres undefined), the pIC50 in [1] is below 4.60.

With `N#Cc1ccc(S(=O)(=O)NCC[C@H](N)COc2ccc(C#N)c(F)c2)c(C(F)(F)F)c1`, in [4], the MRT worked out at 6.9 h. This compound also came in with a clearance in data set [5] of 4.7 mL/min/kg. The same compound had an AUC/dose in data set [6] of 3.7 µg·h/mL. Besides, the bioavailability in data set [7] turned out to be 100%. Also, in [8], the fraction unbound is 0.015. The “inhibition (INH)” value in data set [9] is on record as “Active”.

In the case of `N#Cc1ccc(OC[C@@H](N)CCNS(=O)(=O)c2ccc(Cl)cc2Cl)cc1F`, the chromatographic logD in data set [3] turned out to be 4.5. In addition, in [2], the solubility (kinetic) came to 381 µM (≈ 165 µg/mL). This compound gave a Cmax in [10] of 930 ng/mL. Also, the MRT in [4] was 7.5 h. For the same compound, the Vd in [11] worked out at 1.8 L/kg. The same compound returned a clearance in data set [5] of 4.3 mL/min/kg. This compound also had an AUC/dose in data set [6] of 4.7 µg·h/mL. This compound also returned a bioavailability in data set [7] of 85%. Moreover, in [8], the fraction unbound is 0.0084. Also, the CL free in data set [12] was 512 mL/min/kg. The “inhibition (INH)” value in [9] is “Active”.

As for `C[C@](N)(CCNS(=O)(=O)c1ccc(C#N)cc1C(F)(F)F)COc1ccc(C#N)c(F)c1`, the MRT in data set [4] is 7 h. In [5], this compound displayed a clearance of 37 mL/min/kg. Besides, in data set [6], the AUC/dose was 0.6 µg·h/mL. This compound gave a bioavailability in data set [7] of 100%. In data set [8], this compound came in with a fraction unbound of 0.064. The “inhibition (INH)” value in data set [9] was “Not Active”.

Regarding `N#Cc1ccc(N)c(OC[C@@H](N)CCNS(=O)(=O)c2ccc(Cl)cc2Cl)c1`, the MRT in [4] was determined as 2.3 h. For the same compound, the clearance in data set [5] worked out at 38 mL/min/kg. Also, the AUC/dose in data set [6] was 0.1 µg·h/mL. The compound also had a bioavailability in data set [7] of 22%. The compound also gave a fraction unbound in [8] of 0.029. For the same compound, in data set [9], the “inhibition (INH)” value is “Active”.

As for `N#Cc1ccc(OC[C@@H](N)CCNS(=O)(=O)c2ccc(C(F)(F)F)cc2)cc1F`, in [1], the pIC50 was 6.20.

For the compound `COc1ccccc1S(=O)(=O)NCC[C@H](N)COc1ccc(C#N)c(F)c1`, the pIC50 in data set [1] is 5.10.

Consider `NC(CCNS(=O)(=O)c1ccc(Cl)cc1Cl)COc1cccc(Cl)c1` (centres undefined), for which the pIC50 in [1] is 4.90.

In the case of `N#Cc1ccc(OC[C@@H](N)CCNS(=O)(=O)c2ccccc2C(F)(F)F)cc1F`, the pIC50 in [1] is 7.40.

Consider `N#Cc1ccc(OC[C@@H](N)CCNS(=O)(=O)c2ccccc2OC(F)(F)F)cc1F`, for which the pIC50 in data set [1] is 6.20.

As to `CN(CCC(O)COc1ccc(C#N)c(F)c1)S(=O)(=O)c1ccc(Cl)cc1Cl` (racemic), the pIC50 in data set [1] is 5.00.

Compound `N#Cc1ccc(OCC(N)CCNS(=O)(=O)c2ccc(Cl)cc2Cl)cc1F` (racemic) displayed a chromatographic logD in data set [3] of 4.6. The compound further gave a solubility (kinetic) in data set [2] of at least 390 µM.

In the case of `N#Cc1ccc(OCC(N)CCNS(=O)(=O)c2cccc(Cl)c2)cc1F` (racemic), the pIC50 in [1] is 4.90.

As to `N#Cc1ccc(OCC(N)CCNS(=O)(=O)c2ccccc2)cc1F` (racemic), the pIC50 in [1] was 4.70.

In general, pIC50 refers to the negative decadic logarithm of the IC50, by convention in mol/L. What is called kinetic solubility is the concentration staying in solution when a stock, usually in DMSO, is diluted into the medium. By chromatographic logD is commonly meant lipophilicity estimated from chromatographic retention. Usually MRT stands for a mean duration of stay, worked out from the concentration-time curve. One may read the clearance as the rate of elimination divided by the concentration. By bioavailability is commonly meant dose-corrected exposure relative to a reference, in per cent. Read a low bioavailability as little systemic uptake. By fraction unbound is commonly meant the share of the substance not bound to proteins or other matrix. Broadly, the Cmax is the maximum level reached in the sampled fluid or tissue.

(Values after ChEMBL document CHEMBL4699649, “Design and Optimization of an Acyclic Amine Series of TRPV4 Antagonists by Electronic Modulation of Hydrogen Bond Interactions” (J Med Chem, 2020).)
